From ChEMBL document CHEMBL2203257 (Bioorg Med Chem Lett, 2012)

What was measured:
[1] = molecular target: Serine/threonine-protein kinase MARK2 (Homo sapiens, UniProt Q7KZI7); test: Inhibition of MARK2
[2] = molecular target: Mitogen-activated protein kinase kinase kinase 2 (Homo sapiens, UniProt Q9Y2U5); test: Inhibition of MAP3K2
[3] = molecular target: Mitogen-activated protein kinase kinase kinase 11 (Homo sapiens, UniProt Q16584); test: Inhibition of MAP3K11
[4] = molecular target: Serine/threonine-protein kinase 4 (Homo sapiens, UniProt Q13043); test: Inhibition of STK4
[5] = test system: Mus musculus; test: Antiarthritic activity against collagen-induced arthritis mouse model assessed as mean clinical arthritis score with AUC calculation in at 3 mg/kg, po BID for 14 days; format: functional
[6] = molecular target: Serine/threonine-protein kinase B-raf (Homo sapiens, UniProt P15056); test: Inhibition of BRAF
[7] = molecular target: Bromodomain-containing protein 2 (Homo sapiens, UniProt P25440); test: Inhibition of BRD2
[8] = molecular target: Cyclin-dependent kinase 5 (Homo sapiens, UniProt Q00535); test: Inhibition of CDK5
[9] = molecular target: Serine/threonine-protein kinase TBK1 (Homo sapiens, UniProt Q9UHD2); test: Inhibition of TBK1
[10] = molecular target: Bromodomain-containing protein 3 (Homo sapiens, UniProt Q15059); test: Inhibition of BRD3
[11] = molecular target: T1, Phosphatidylinositol 4,5-bisphosphate 3-kinase catalytic subunit delta isoform (Homo sapiens, UniProt O00329); test: Inhibition of PIK3Cd
T1 sequence (O00329 whole entry): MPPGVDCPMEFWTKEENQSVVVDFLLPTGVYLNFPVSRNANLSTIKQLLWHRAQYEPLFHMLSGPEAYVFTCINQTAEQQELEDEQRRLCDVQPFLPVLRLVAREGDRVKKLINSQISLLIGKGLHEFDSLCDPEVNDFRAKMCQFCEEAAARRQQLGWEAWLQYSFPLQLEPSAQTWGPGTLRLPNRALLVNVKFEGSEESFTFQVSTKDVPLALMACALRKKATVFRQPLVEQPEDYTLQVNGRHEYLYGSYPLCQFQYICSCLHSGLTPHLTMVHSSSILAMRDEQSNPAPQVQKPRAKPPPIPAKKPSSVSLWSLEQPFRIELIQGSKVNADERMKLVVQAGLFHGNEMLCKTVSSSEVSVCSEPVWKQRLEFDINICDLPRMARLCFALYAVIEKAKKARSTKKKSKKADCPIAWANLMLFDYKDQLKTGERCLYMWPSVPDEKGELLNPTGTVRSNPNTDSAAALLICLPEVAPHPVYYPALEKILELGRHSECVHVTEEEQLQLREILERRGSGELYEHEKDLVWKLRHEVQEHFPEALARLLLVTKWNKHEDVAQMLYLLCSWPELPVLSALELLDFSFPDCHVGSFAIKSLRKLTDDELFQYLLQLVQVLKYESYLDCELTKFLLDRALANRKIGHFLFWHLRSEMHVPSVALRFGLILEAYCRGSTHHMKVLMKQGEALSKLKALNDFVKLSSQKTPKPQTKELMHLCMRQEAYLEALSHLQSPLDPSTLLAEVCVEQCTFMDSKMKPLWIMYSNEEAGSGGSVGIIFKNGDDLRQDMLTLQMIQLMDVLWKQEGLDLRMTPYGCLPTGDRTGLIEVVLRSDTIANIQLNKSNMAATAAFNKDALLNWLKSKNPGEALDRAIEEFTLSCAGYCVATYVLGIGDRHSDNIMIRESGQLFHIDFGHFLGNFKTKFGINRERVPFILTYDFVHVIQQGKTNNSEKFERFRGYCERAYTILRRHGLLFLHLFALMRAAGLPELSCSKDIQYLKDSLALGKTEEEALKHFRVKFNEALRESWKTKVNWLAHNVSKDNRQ

[12] = molecular target: Phosphatidylinositol 4,5-bisphosphate 3-kinase catalytic subunit gamma isoform (Homo sapiens, UniProt P48736); test: Inhibition of PIK3Cg
Chain of Phosphatidylinositol 4,5-bisphosphate 3-kinase catalytic subunit gamma isoform (P48736 whole entry, canonical isoform): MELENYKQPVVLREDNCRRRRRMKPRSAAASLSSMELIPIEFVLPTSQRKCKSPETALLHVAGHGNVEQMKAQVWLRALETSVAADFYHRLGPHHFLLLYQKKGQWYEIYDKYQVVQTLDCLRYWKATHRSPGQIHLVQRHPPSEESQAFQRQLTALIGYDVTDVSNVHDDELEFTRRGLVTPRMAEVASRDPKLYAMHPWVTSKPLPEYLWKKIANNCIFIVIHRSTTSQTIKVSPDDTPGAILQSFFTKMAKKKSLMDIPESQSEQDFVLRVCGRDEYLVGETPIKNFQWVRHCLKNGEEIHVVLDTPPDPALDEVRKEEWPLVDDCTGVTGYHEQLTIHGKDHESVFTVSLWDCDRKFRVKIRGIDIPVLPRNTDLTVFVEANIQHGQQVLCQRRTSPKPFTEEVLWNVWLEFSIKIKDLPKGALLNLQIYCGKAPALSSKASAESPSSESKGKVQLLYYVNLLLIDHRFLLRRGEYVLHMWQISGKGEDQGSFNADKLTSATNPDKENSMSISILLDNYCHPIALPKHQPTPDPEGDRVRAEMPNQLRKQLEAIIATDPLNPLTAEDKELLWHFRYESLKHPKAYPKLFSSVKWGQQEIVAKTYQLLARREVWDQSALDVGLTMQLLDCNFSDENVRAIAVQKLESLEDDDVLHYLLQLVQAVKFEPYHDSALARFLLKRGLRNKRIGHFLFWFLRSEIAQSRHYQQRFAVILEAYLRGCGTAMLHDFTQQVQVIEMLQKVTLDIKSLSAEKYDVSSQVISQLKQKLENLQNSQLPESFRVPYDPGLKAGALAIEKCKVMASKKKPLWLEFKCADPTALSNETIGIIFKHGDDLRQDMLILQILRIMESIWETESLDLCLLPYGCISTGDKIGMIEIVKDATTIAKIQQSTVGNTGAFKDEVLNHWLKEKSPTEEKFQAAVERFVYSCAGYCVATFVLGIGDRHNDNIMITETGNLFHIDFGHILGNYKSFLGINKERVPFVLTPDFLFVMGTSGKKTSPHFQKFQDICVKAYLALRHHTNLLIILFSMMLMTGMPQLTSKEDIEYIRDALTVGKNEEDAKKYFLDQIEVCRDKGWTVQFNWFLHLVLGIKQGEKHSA

[13] = molecular target: Dual specificity protein kinase CLK2 (Homo sapiens, UniProt P49760); test: Inhibition of CLK2
[14] = Half life in rat […] at 5 mg/kg, po; 1 mg/kg, iv; format: ADME, organism-based
[15] = molecular target: Tyrosine-protein kinase JAK2 (Homo sapiens, UniProt O60674); test: Inhibition of JAK2
Chain of Tyrosine-protein kinase JAK2 (O60674 whole entry, the tested form may be a part): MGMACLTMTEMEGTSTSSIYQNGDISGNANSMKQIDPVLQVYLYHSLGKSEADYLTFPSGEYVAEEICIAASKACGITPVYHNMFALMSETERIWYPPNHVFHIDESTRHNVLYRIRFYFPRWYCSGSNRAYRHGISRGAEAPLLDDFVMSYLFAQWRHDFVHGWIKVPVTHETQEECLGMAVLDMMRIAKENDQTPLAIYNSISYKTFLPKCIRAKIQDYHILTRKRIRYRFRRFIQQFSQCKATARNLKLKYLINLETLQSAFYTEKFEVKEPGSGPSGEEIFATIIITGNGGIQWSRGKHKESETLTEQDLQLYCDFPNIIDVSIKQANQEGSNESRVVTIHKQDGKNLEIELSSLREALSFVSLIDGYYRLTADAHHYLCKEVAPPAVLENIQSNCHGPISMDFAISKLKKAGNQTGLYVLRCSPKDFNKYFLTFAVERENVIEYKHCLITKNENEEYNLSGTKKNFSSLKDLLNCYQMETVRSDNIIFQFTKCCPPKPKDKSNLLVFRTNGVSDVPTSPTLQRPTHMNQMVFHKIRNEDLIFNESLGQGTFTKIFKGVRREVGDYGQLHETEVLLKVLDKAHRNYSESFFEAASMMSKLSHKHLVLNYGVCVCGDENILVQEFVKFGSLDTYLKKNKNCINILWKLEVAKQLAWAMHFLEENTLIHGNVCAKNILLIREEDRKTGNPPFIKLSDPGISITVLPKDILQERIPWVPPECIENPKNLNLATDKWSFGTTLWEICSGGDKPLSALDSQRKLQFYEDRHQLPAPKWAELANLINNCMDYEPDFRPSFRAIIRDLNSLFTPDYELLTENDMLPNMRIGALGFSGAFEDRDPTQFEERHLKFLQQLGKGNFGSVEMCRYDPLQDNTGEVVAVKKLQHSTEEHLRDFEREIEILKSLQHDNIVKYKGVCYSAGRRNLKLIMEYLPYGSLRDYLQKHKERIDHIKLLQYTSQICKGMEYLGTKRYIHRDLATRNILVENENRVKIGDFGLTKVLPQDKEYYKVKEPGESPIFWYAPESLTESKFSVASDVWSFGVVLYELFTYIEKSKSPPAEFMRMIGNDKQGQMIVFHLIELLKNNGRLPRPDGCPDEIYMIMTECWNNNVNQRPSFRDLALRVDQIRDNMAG

[16] = molecular target: Epithelial discoidin domain-containing receptor 1 (Homo sapiens, UniProt Q08345); test: Inhibition of DDR1
[17] = molecular target: Phosphatidylinositol 5-phosphate 4-kinase type-2 gamma (Homo sapiens, UniProt Q8TBX8); test: Inhibition of PIP4K2C
[18] = molecular target: Mitogen-activated protein kinase kinase kinase 20 (Homo sapiens, UniProt Q9NYL2); test: Inhibition of ZAK
[19] = test system: Mus musculus; test: Antiinflammatory activity in mouse air pouch model assessed as effect on IL-8-induced migration of granulocytes into air pouch at 3 mg/kg, po; format: functional
[20] = molecular target: Macrophage-stimulating protein receptor (Homo sapiens, UniProt Q04912); test: Inhibition of MST1R
[21] = molecular target: Serine/threonine-protein kinase 16 (Homo sapiens, UniProt O75716); test: Inhibition of STK16
Chain of Serine/threonine-protein kinase 16 (O75716 whole entry): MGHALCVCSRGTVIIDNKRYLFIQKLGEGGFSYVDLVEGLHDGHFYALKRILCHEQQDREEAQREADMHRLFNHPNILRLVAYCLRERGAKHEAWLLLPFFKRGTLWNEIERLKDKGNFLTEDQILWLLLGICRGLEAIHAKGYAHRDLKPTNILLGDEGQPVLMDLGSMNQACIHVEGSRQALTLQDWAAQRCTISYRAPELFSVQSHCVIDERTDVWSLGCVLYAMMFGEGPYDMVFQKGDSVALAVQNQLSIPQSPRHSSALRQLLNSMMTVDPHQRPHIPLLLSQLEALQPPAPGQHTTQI

[22] = molecular target: Cyclin-dependent kinase 7 (Homo sapiens, UniProt P50613); test: Inhibition of CDK7
[23] = molecular target: Scaffold protein ILK (Homo sapiens, UniProt Q13418); test: Inhibition of ILK
[24] = molecular target: Protein kinase C delta type (Homo sapiens, UniProt Q05655); test: Inhibition of PRKCD
[25] = molecular target: Ephrin type-A receptor 3 (Homo sapiens, UniProt P29320); test: Inhibition of EPHA3
Chain of Ephrin type-A receptor 3 (P29320 whole entry): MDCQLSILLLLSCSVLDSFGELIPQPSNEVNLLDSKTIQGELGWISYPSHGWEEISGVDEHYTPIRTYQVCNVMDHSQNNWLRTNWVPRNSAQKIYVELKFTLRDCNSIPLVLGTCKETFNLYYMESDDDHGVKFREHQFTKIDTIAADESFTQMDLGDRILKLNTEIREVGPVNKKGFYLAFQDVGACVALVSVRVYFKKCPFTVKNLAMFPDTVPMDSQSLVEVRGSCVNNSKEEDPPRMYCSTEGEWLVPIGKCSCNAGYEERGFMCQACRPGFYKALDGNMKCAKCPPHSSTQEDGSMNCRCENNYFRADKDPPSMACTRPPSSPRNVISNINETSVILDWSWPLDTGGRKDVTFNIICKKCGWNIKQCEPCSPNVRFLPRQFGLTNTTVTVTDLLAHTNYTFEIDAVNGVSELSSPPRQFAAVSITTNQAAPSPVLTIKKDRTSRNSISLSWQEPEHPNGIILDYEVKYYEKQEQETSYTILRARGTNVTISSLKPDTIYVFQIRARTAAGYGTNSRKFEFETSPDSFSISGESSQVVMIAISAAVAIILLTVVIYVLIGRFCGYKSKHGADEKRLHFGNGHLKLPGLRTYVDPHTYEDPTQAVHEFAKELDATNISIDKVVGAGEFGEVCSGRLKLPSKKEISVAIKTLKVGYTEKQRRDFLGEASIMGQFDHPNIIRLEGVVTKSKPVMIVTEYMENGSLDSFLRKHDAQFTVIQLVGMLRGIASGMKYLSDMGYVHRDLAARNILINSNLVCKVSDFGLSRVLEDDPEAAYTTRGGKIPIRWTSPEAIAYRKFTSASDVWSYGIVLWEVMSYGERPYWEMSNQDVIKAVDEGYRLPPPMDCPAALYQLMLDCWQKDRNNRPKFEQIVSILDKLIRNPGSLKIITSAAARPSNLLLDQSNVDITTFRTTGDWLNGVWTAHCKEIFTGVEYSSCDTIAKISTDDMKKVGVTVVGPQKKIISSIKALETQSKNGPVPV

[26] = molecular target: Ribosomal protein S6 kinase alpha-1 (Homo sapiens, UniProt Q15418); test: Inhibition of RPS6KA1
[27] = molecular target: Receptor-interacting serine/threonine-protein kinase 2 (Homo sapiens, UniProt O43353); test: Inhibition of RIPK2
Chain of Receptor-interacting serine/threonine-protein kinase 2 (O43353 whole entry): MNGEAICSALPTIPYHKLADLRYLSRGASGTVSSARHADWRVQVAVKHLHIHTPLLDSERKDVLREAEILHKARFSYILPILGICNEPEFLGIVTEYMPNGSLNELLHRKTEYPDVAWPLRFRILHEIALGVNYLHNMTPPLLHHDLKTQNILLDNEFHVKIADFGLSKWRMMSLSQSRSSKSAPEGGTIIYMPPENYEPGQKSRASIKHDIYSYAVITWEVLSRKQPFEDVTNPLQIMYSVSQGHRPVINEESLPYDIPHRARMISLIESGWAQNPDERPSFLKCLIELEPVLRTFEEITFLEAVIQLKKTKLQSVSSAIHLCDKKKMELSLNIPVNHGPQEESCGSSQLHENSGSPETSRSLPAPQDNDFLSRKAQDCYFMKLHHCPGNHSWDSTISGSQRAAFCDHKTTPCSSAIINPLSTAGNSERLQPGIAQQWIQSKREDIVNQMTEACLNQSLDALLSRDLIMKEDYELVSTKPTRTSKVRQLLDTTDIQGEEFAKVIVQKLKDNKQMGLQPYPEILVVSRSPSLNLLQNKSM

[28] = molecular target: Serine/threonine-protein kinase TAO3 (Homo sapiens, UniProt Q9H2K8); test: Inhibition of TAOK3
[29] = molecular target: LIM domain kinase 1 (Homo sapiens, UniProt P53667); test: Inhibition of LIMK1
Chain of LIM domain kinase 1 (P53667 whole entry, the tested form may be a part): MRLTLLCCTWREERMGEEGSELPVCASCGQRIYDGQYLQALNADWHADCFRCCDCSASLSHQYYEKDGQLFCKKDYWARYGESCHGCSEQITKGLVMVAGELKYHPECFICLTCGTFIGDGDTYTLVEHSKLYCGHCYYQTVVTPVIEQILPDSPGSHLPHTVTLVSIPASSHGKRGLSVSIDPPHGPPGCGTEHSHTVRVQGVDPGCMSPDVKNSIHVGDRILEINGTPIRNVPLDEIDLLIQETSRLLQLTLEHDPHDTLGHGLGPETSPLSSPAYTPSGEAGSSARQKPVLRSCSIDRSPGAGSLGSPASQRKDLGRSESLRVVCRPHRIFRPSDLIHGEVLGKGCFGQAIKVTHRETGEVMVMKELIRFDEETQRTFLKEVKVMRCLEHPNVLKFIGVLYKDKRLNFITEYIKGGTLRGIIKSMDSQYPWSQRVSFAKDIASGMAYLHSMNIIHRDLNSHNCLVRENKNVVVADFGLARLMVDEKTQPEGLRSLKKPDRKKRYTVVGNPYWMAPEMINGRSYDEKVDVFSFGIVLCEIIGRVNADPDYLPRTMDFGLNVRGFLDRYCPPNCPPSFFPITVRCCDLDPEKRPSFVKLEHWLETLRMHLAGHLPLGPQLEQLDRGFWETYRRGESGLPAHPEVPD

[30] = molecular target: Cyclin-dependent kinase 6 (Homo sapiens, UniProt Q00534); test: Inhibition of CDK6
Chain of Cyclin-dependent kinase 6 (Q00534 whole entry): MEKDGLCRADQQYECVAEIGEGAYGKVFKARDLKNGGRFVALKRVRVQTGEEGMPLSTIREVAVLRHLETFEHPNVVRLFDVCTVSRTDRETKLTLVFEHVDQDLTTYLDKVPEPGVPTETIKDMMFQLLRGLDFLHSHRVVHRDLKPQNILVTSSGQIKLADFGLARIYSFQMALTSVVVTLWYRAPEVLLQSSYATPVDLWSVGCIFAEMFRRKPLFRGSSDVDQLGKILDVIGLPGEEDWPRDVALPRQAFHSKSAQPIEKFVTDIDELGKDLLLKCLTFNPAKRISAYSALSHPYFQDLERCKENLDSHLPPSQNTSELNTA

[31] = molecular target: Tyrosine-protein kinase Yes (Homo sapiens, UniProt P07947); test: Inhibition of YES1
[32] = molecular target: Non-receptor tyrosine-protein kinase TYK2 (Homo sapiens, UniProt P29597); test: Inhibition of TYK2
[33] = molecular target: Mitogen-activated protein kinase 1 (Homo sapiens, UniProt P28482); test: Inhibition of MAPK1
[34] = molecular target: Membrane-associated tyrosine- and threonine-specific cdc2-inhibitory kinase (Homo sapiens, UniProt Q99640); test: Inhibition of PKMYT1
[35] = Oral bioavailability in cynomolgus monkey; format: ADME, organism-based, Macaca fascicularis; conditions: in vivo
[36] = molecular target: Cyclin-dependent kinase 2 (Homo sapiens, UniProt P24941); test: Inhibition of CDK2
[37] = molecular target: Tyrosine-protein kinase Tec (Homo sapiens, UniProt P42680); test: Inhibition of TEC
[38] = molecular target: Activin receptor type-1B (Homo sapiens, UniProt P36896); test: Inhibition of ACVR1B

IC50 [1]: > 10 µM | IC50 [2]: > 10 µM | IC50 [3]: > 10 µM | IC50 [4]: > 10 µM | IC50 [6]: > 10 µM | IC50 [7]: > 10 µM | IC50 [8]: > 10 µM | IC50 [9]: > 10 µM | IC50 [10]: > 10 µM | IC50 [11]: 0.708 µM | IC50 [12]: 0.0245 µM | IC50 [13]: > 10 µM | half-life [14]: 1.2 h | IC50 [15]: > 10 µM | IC50 [16]: > 10 µM | IC50 [17]: 1.07 µM | IC50 [18]: > 10 µM | IC50 [20]: > 10 µM | IC50 [21]: > 10 µM | IC50 [22]: > 10 µM | IC50 [23]: > 10 µM | IC50 [24]: > 10 µM | IC50 [25]: > 10 µM | IC50 [26]: > 10 µM | IC50 [27]: > 10 µM | IC50 [28]: > 10 µM | IC50 [29]: > 10 µM | IC50 [30]: > 10 µM | IC50 [31]: > 10 µM | IC50 [32]: > 10 µM | IC50 [33]: > 10 µM | IC50 [34]: > 10 µM | bioavailability [35]: 88% | IC50 [36]: > 10 µM | IC50 [37]: > 10 µM | IC50 [38]: > 10 µM
Compound: CC(C)(C)NS(=O)(=O)c1cncc(-c2ccn3nc(N)nc3c2)c1
Activity [5]: 30% | Activity [19]: 74%
